SMILES strings stand for the structures. In brackets after ≈: the same amount, converted by molar mass.

This test concerns Mycobacterium tuberculosis. The experiment in a line: Antimycobacterial activity against Mycobacterium tuberculosis H37Rv by agar dilution method. The test is classed as functional. For orientation: Agar dilution tests growth on a series of plates holding different concentrations.
As to `O=C1CCCc2nc(-c3ccccc3)ccc21`, the minimum inhibitory concentration (MIC) amounted to 12.5 µg/mL (≈ 56 µM).

In turn, `Cc1ccc(-c2ccc3c(n2)CCCC3=O)cc1` displayed an MIC of 12.5 µg/mL (≈ 52.7 µM).

As to `COc1ccc(-c2ccc3c(n2)CCCC3=O)cc1`, the MIC was 12.5 µg/mL (≈ 49.3 µM).

Take `O=C1CCCc2nc(-c3cccs3)ccc21`: the lowest concentration to inhibit growth (MIC) was 12.5 µg/mL (≈ 54.5 µM).

Compound `O=C1CCCc2nc(-c3ccc(Cl)s3)ccc21` came in with a minimal inhibitory concentration (MIC) of 6.25 µg/mL (≈ 23.7 µM).

On to `O=C1CCCc2nc(-c3ccc(Br)s3)ccc21`, for which 6.25 µg/mL (≈ 20.3 µM) was the least that counted as inhibitory (MIC).

For `CC1(C)CC(=O)c2ccc(-c3ccccc3)nc2C1`, the MIC was determined as 12.5 µg/mL (≈ 49.7 µM).

Turning to `Cc1ccc(-c2ccc3c(n2)CC(C)(C)CC3=O)cc1`, inhibition of growth (MIC) required 6.25 µg/mL (≈ 23.6 µM).

As for `COc1ccc(-c2ccc3c(n2)CC(C)(C)CC3=O)cc1`, the MIC turned out to be 12.5 µg/mL (≈ 44.4 µM). This MIC is about 2-fold higher than that of the compound before.

Compound `CC1(C)CC(=O)c2ccc(-c3cccs3)nc2C1` yielded an MIC of 6.25 µg/mL (≈ 24.3 µM).

`CC1(C)CC(=O)c2ccc(-c3ccc(Cl)s3)nc2C1`: the MIC turned out to be 3.13 µg/mL (≈ 10.7 µM).

`CC1(C)CC(=O)c2ccc(-c3ccc(Br)s3)nc2C1` registered an MIC of 3.13 µg/mL (≈ 9.31 µM).

`O=C1c2ccc(-c3ccccc3)nc2CCC1(CO)CO` showed a minimum inhibitory concentration (MIC) above 25 µg/mL.

Consider `Cc1ccc(-c2ccc3c(n2)CCC(CO)(CO)C3=O)cc1`, for which the MIC is above 25 µg/mL.

Take `COc1ccc(-c2ccc3c(n2)CCC(CO)(CO)C3=O)cc1`: the MIC was above 25 µg/mL.

As for `O=C1c2ccc(-c3cccs3)nc2CCC1(CO)CO`, the MIC is above 25 µg/mL.

On to `O=C1c2ccc(-c3ccc(Cl)s3)nc2CCC1(CO)CO`, for which the MIC is above 25 µg/mL.

Consider `O=C1c2ccc(-c3ccc(Br)s3)nc2CCC1(CO)CO`, for which the MIC was above 25 µg/mL.

The compound `CC[C@@H](CO)NCCN[C@@H](CC)CO` [ETHAMBUTOL] had an MIC of 3.13 µg/mL (≈ 15.3 µM).

Compound `NNC(=O)c1ccncc1` [ISONIAZID] gave an MIC of 0.1 µg/mL (≈ 0.729 µM).

`NC(=O)c1cnccn1` [PYRAZINAMIDE] gave an MIC of 50 µg/mL (≈ 406 µM).

Broadly, the MIC is the lowest concentration that inhibits growth of the organism. Higher therefore signals a less susceptible organism.
